Laboratory results reported in US12624044B2, “SMARCA degraders and uses thereof” (Kymera Therapeutics, Inc., priority 2019, dated 2026).

Legend:
[1] = molecular target: T1, SMARCA4 (Homo sapiens, UniProt P51532); assay: SMARCA4 Western blot MV4-11 degradation; assay type: cell-based; conditions: 24 h; for DC50: MV4-11 cells, read-out: SMARCA4 WB MV411 degradation 24 h: Average external-Abs DC50; for Dmax: MV4-11, MV4-11 cells, read-out: SMARCA4 WB MV411 degradation 24 h: Average Dmax %
T1 construct: SMARCA2 and SMARCA4 protein degradation in MV4-11 cells; endogenous in cells; host or cells: MV4-11
Procedure, shortened: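 MV4-11 cells treated with compound for 24 h, lysed in RIPA with protease/phosphatase inhibitors, and SMARCA2 and SMARCA4 (BRG1) levels assessed by Western blot with β-actin loading control and LI-COR fluorescent read-out. Maximal degradation (Dmax %) after 24 h binned into letter codes.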

[2] = molecular target: SMARCA2 (Homo sapiens, UniProt P51531); assay: MSD SMARCA2 degradation in A549 cell line; assay type: cell-based; conditions: 24 h; for DC50: A549 cells, read-out: SMARCA2 MSD A549 degradation 24 h: Average external-Abs DC50; for Dmax: A549, A549 cells
Procedure, shortened: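 SMARCA2 remaining was measured by MSD electrochemiluminescence on RIPA lysates (anti-SMARCA2 plus SULFO-TAG anti-rabbit). Prior exposure: 24 h of A549 cells to a 10-point, 3-fold dilution series topping at 1000 nM final; Dmax % given as graded codes.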

Sequence of SMARCA2 (P51531 whole entry): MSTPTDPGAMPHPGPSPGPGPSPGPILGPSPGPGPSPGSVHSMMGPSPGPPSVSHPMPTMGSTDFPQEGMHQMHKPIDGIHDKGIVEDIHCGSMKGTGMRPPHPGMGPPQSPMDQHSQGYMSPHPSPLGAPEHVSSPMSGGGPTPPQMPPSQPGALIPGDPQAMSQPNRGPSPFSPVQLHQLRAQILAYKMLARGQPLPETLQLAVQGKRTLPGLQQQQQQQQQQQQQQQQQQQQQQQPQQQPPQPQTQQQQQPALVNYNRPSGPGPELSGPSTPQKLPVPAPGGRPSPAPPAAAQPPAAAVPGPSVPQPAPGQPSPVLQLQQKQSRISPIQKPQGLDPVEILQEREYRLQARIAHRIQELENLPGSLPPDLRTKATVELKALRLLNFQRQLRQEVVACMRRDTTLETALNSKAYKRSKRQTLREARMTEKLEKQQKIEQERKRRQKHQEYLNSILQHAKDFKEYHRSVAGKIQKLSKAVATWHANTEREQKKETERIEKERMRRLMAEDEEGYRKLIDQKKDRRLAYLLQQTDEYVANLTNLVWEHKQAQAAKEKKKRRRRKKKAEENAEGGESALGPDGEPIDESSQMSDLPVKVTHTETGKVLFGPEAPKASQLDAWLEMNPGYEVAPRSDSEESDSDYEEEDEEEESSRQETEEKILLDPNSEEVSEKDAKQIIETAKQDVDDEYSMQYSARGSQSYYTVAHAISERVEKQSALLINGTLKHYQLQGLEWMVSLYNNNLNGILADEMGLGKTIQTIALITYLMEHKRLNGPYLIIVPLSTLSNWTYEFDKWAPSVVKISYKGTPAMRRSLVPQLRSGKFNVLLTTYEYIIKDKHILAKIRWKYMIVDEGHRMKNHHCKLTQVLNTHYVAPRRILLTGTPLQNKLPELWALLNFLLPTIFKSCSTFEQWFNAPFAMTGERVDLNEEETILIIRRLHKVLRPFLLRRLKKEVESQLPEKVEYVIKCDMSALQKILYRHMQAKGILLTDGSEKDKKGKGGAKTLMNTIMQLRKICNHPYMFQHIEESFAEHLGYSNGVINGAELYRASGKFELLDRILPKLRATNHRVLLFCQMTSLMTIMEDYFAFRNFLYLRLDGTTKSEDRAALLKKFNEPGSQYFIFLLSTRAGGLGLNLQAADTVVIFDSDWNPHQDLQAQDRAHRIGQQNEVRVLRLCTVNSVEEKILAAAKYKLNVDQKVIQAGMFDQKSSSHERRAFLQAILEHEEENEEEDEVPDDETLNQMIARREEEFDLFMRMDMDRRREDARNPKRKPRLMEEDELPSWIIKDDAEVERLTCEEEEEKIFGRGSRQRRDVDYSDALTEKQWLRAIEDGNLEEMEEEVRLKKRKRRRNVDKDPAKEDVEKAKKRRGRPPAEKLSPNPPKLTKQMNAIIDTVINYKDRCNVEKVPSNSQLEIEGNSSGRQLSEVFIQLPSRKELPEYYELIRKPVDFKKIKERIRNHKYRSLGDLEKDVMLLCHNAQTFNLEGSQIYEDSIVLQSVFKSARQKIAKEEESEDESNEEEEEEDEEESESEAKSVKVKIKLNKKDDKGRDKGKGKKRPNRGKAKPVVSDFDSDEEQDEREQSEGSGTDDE
T1 sequence (P51532 whole entry): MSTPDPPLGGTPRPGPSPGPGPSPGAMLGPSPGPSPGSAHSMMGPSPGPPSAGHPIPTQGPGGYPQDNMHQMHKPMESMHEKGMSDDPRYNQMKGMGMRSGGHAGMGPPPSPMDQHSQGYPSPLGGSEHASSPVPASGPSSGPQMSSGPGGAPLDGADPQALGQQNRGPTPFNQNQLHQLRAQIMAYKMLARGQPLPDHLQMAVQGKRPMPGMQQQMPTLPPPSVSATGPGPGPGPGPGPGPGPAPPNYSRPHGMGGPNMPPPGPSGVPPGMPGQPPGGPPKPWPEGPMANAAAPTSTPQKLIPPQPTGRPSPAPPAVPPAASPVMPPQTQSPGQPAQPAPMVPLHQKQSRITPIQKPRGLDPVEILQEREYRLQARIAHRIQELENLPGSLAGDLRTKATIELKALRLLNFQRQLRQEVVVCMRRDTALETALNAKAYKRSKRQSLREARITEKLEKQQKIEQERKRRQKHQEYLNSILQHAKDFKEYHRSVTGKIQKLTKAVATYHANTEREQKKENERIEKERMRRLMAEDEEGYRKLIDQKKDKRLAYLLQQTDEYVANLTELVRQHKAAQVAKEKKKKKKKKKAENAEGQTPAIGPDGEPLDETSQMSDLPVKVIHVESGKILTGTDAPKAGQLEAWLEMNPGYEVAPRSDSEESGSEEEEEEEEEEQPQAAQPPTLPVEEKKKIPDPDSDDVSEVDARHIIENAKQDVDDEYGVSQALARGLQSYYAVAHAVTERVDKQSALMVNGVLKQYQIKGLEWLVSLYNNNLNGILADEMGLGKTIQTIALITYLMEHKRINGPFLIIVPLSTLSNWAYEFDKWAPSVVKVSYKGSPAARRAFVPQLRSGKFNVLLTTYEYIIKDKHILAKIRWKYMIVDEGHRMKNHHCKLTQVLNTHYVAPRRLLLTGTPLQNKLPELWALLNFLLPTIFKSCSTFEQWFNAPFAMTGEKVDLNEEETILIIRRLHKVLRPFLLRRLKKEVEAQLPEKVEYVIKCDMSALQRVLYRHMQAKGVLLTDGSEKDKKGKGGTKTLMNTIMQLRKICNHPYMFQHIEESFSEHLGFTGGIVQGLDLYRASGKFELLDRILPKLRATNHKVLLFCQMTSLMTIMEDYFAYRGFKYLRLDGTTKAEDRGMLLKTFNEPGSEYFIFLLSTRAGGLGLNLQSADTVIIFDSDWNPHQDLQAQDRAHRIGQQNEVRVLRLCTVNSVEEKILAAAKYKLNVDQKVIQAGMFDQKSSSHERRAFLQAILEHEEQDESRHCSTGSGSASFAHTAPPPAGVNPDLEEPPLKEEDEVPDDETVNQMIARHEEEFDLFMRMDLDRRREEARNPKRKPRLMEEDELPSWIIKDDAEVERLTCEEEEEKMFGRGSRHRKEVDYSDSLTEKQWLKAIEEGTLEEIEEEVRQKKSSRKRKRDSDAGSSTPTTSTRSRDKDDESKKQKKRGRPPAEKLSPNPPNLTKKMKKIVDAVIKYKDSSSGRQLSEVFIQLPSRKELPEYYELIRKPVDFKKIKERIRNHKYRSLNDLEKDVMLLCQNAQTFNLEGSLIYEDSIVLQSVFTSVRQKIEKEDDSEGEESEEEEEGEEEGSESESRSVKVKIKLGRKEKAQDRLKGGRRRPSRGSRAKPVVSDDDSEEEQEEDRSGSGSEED

Structure (SMILES)	DC50 [1]	DC50 [2]	Dmax [1]	Dmax [2]
Cc1ncsc1-c1ccc(CNC(=O)[C@@H]2C[C@@H](O)CN2C(=O)[C@@H](NC(=O)C2CCN(Cc3cnc(N4C5CCC4CN(c4cc(-c6ccccc6O)nnc4N)C5)nc3)CC2)C(C)(C)C)cc1 [I-384]	< 100 nM	100 to 500 nM		
Cc1ncsc1-c1ccc(CNC(=O)[C@@H]2C[C@@H](O)CN2C(=O)[C@@H](NC(=O)C2CN(Cc3cnc(N4C5CCC4CN(c4cc(-c6ccccc6O)nnc4N)C5)nc3)C2)C(C)(C)C)cc1 [I-385]	< 100 nM	501 to 1000 nM	> 90%	50 to 70%
Cc1ncsc1-c1ccc(CNC(=O)[C@@H]2C[C@@H](O)CN2C(=O)[C@@H](NC(=O)[C@@H]2CCN(Cc3cnc(N4C5CCC4CN(c4cc(-c6ccccc6O)nnc4N)C5)nc3)C2)C(C)(C)C)cc1 [I-386, (2S,4R)-1-((2S)-2-((3R)-1-((2-(3-(3-amino-6-(2-hydroxyphenyl)pyridazin-4-yl)-3,8-diazabicyclo[3.2.1]octan-8-yl)pyrimidin-5-yl)methyl)pyrrolidine-3-carboxamido)-3,3-dimethylbutanoyl)-4-hydroxy-N-(4-(4-methylthiazol-5-yl)benzyl)pyrrolidine-2-carboxamide]	100 to 500 nM	501 to 1000 nM	> 90%	50 to 70%
Cc1ncsc1-c1ccc(CNC(=O)[C@@H]2C[C@@H](O)CN2C(=O)[C@@H](NC(=O)[C@H]2CCN(Cc3cnc(N4C5CCC4CN(c4cc(-c6ccccc6O)nnc4N)C5)nc3)C2)C(C)(C)C)cc1 [I-387]	501 to 1000 nM	> 1000 nM	> 90%	< 50%
Cc1ncsc1-c1ccc(CNC(=O)[C@@H]2C[C@@H](O)CN2C(=O)C(N(C)C(=O)C[C@H]2CC[C@H](N3CCC(c4cnc(N5C6CCC5CN(c5cc(-c7ccccc7O)nnc5N)C6)nc4)CC3)CC2)C(C)(C)C)cc1 (stereo partly shown) [I-388]	< 100 nM	100 to 500 nM	70 to 90%	> 90%
CC(C)(C)[C@H](NC(=O)C1(F)CC1)C(=O)N1C[C@H](O)C[C@H]1C(=O)NCc1ccc(-c2scnc2-c2ccc3cn[nH]c3c2)cc1OCCc1ccc(CN2CCN(c3cc(-c4ccccc4O)nnc3N)CC2)cc1 [I-447, (2S,4R)—N-(4-(4-(1H-indazol-6-yl)thiazol-5-yl)-2-(4-((4-(3-amino-6-(2-hydroxyphenyl)pyridazin-4-yl)piperazin-1-yl)methyl)phenethoxy)benzyl)-1-((S)-2-(1-fluorocyclopropanecarboxamido)-3,3-dimethylbutanoyl)-4-hydroxypyrrolidine-2-carboxamide]	< 100 nM	100 to 500 nM	> 90%	> 90%
Cc1ncsc1-c1ccc(CNC(=O)[C@@H]2C[C@@H](O)CN2C(=O)[C@@H](NC(=O)CCCN2CCCC(n3cc(-c4cc(-c5ccccc5O)nnc4N)cn3)C2)C(C)(C)C)cc1 (stereo partly shown) [I-454]	> 1000 nM	> 1000 nM	< 50%	< 50%
Cc1ncsc1-c1ccc(CNC(=O)[C@@H]2C[C@@H](O)CN2C(=O)[C@@H](NC(=O)CCN2CCN(Cc3ccc(-c4cc(-c5ccccc5O)nnc4N)cc3)CC2)C(C)(C)C)cc1 [I-474]		> 1000 nM	70 to 90%	< 50%
Cc1ncsc1-c1ccc(CNC(=O)[C@@H]2C[C@@H](O)CN2C(=O)[C@@H](NC(=O)CCN2CCC[C@H](Cn3cc(-c4cc(-c5ccccc5O)nnc4N)cn3)C2)C(C)(C)C)cc1 [I-478]	> 1000 nM	> 1000 nM	< 50%	< 50%
Cc1ncsc1-c1ccc(CNC(=O)[C@@H]2C[C@@H](O)CN2C(=O)[C@@H](NC(=O)CCCCN2CCC[C@H](Cn3cc(-c4cc(-c5ccccc5O)nnc4N)cn3)C2)C(C)(C)C)cc1 [I-480]	> 1000 nM	> 1000 nM	< 50%	< 50%
Cc1ncsc1-c1ccc(CNC(=O)[C@@H]2C[C@@H](O)CN2C(=O)[C@@H](NC(=O)[C@H](C)N2CCC(c3cnc(N4C5CCC4CN(c4cc(-c6ccccc6O)nnc4N)C5)nc3)CC2)C(C)(C)C)cc1 [I-481]	> 1000 nM	> 1000 nM	> 90%	< 50%
Cc1ncsc1-c1ccc(CNC(=O)[C@@H]2C[C@@H](O)CN2C(=O)[C@@H](NC(=O)[C@@H](C)N2CCC(c3cnc(N4C5CCC4CN(c4cc(-c6ccccc6O)nnc4N)C5)nc3)CC2)C(C)(C)C)cc1 [I-482]	> 1000 nM	501 to 1000 nM	> 90%	70 to 90%
Cc1ncsc1-c1ccc(CNC(=O)[C@@H]2C[C@@H](O)CN2C(=O)[C@@H](NC(=O)C2CCC(N3CCC(n4cc(-c5cc(-c6ccccc6O)nnc5N)cn4)CC3)CC2)C(C)(C)C)cc1 (stereo partly shown) [I-483]	> 1000 nM	100 to 500 nM	< 50%	70 to 90%
Cc1ncsc1-c1ccc(CNC(=O)[C@@H]2C[C@@H](N)CN2C(=O)[C@@H](NC(=O)CCCNCc2ccc(C#Cc3cc(NC(=O)Nc4cc(F)ncc4CO)ccn3)cc2)C(C)(C)C)cc1 [I-492]	> 1000 nM	> 1000 nM	< 50%	< 50%
Cc1ncsc1-c1ccc(CNC(=O)[C@@H]2C[C@@H](O)CN2C(=O)[C@@H](NC(=O)CCN(C)CC#Cc2cnc(N3C4CCC3CN(c3cc(-c5ccccc5O)nnc3N)C4)nc2)C(C)(C)C)cc1 [I-496]	< 100 nM	501 to 1000 nM	> 90%	70 to 90%
Cc1ncsc1-c1ccc(CNC(=O)[C@@H]2C[C@@H](O)CN2C(=O)[C@@H](NC(=O)CC2CCC(c3cnc(N4C5CCC4CN(c4cc(-c6ccccc6O)nnc4N)C5)nc3)CC2)C(C)(C)C)cc1 (stereo partly shown) [I-502]	< 100 nM	< 100 nM	> 90%	> 90%
Cc1ncsc1-c1ccc(CNC(=O)[C@@H]2C[C@@H](O)CN2C(=O)[C@@H](NC(=O)C2CCC(CCCCCN3CCC(Cn4cc(-c5cc(-c6ccccc6O)nnc5N)cn4)CC3)CC2)C(C)(C)C)cc1 (stereo partly shown) [I-504]	100 to 500 nM	100 to 500 nM	> 90%	> 90%
Cc1ncsc1-c1ccc(CNC(=O)[C@@H]2C[C@@H](O)CN2C(=O)[C@@H](NC(=O)c2ccc(CCCCCN3CCC(Cn4cc(-c5cc(-c6ccccc6O)nnc5N)cn4)CC3)cc2)C(C)(C)C)cc1 [I-505]	100 to 500 nM	100 to 500 nM	> 90%	> 90%
Cc1ncsc1-c1ccc(CNC(=O)[C@@H]2C[C@@H](O)CN2C(=O)[C@@H](NC(=O)c2ccc(C#CCCCN3CCC(Cn4cc(-c5cc(-c6ccccc6O)nnc5N)cn4)CC3)cc2)C(C)(C)C)cc1 [I-506]	< 100 nM	100 to 500 nM	> 90%	> 90%
Cc1ncsc1-c1ccc(CNC(=O)[C@@H]2C[C@@H](O)CN2C(=O)[C@@H](NC(=O)c2ccc(-c3ccc(CN4CCC(Cn5cc(-c6cc(-c7ccccc7O)nnc6N)cn5)CC4)cc3)cc2)C(C)(C)C)cc1 [I-507]	< 100 nM	< 100 nM	> 90%	> 90%
Cc1ncsc1-c1ccc(CNC(=O)[C@@H]2C[C@@H](O)CN2C(=O)[C@@H](NC(=O)Cc2ccc(-c3ccc(N4CCC(Cn5cc(-c6cc(-c7ccccc7O)nnc6N)cn5)CC4)cc3)cc2)C(C)(C)C)cc1 [I-508]	> 1000 nM	> 1000 nM	< 50%	< 50%
Cc1ncsc1-c1ccc(CNC(=O)[C@@H]2C[C@@H](O)CN2C(=O)[C@@H](NC(=O)CC2CCC(N3CCC(c4cnc(N5C6CCC5CN(c5cc(-c7ccccc7O)nnc5N)C6)nc4)CC3)CC2)C(C)(C)C)cc1 (stereo partly shown) [I-511]	< 100 nM	100 to 500 nM	> 90%	> 90%
Cc1ncsc1-c1ccc(CNC(=O)[C@@H]2C[C@@H](O)CN2C(=O)[C@@H](NC(=O)CC2CC(N3CCC(c4cnc(N5C6CCC5CN(c5cc(-c7ccccc7O)nnc5N)C6)nc4)CC3)C2)C(C)(C)C)cc1 (stereo partly shown) [I-512]	> 1000 nM	100 to 500 nM	< 50%	70 to 90%
Cc1ncsc1-c1ccc(CNC(=O)[C@@H]2C[C@@H](O)CN2C(=O)[C@@H](NC(=O)Cc2ccc(N3CCC(c4cnc(N5C6CCC5CN(c5cc(-c7ccccc7O)nnc5N)C6)nc4)CC3)cc2)C(C)(C)C)cc1 [I-513]	100 to 500 nM	501 to 1000 nM	70 to 90%	70 to 90%
Cc1ncsc1-c1ccc(CNC(=O)[C@@H]2C[C@@H](O)CN2C(=O)[C@@H](NC(=O)c2ccc(N3CCC(n4cc(-c5cc(-c6ccccc6O)nnc5N)cn4)CC3)cc2)C(C)(C)C)cc1 [I-515]	< 100 nM	> 1000 nM	> 90%	< 50%
Cc1ncsc1-c1ccc(CNC(=O)[C@@H]2C[C@@H](O)CN2C(=O)[C@@H](NC(=O)Cc2ccc(N3CCC(n4cc(-c5cc(-c6ccccc6O)nnc5N)cn4)CC3)cc2)C(C)(C)C)cc1 [I-516]	> 1000 nM	> 1000 nM	< 50%	< 50%
Cc1ncsc1-c1ccc(CNC(=O)[C@@H]2C[C@@H](O)CN2C(=O)[C@@H](NC(=O)C2(F)CC2)C2CCC(N(C)CCCc3cnc(N4C5CCC4CN(c4cc(-c6ccccc6O)nnc4N)C5)nc3)CC2)cc1 (stereo partly shown) [I-518]	100 to 500 nM	> 1000 nM	50 to 70%	< 50%
Cc1cc(-c2scnc2C)ccc1CNC(=O)[C@@H]1C[C@@H](O)CN1C(=O)[C@@H](NC(=O)CN1CCC(c2cnc(N3C4CCC3CN(c3cc(-c5ccccc5O)nnc3N)C4)nc2)CC1)C(C)(C)C [I-521]	100 to 500 nM	100 to 500 nM	> 90%	> 90%
